Assay results: publication PMC7864049, “Co-crystal structures of HIV TAR RNA bound to lab-evolved proteins show key roles for arginine relevant to the design of cyclic peptide TAR inhibitors” (The Journal of Biological Chemistry, 2021)
“Also recorded” adds a separate entry of the source. Read-outs that look alike come from different tables or passages of the source.

Experiments:
[1] = biological target: HIV-1 TAR RNA (27-mer); assay type: binding
[2] = test system: Tat ARM binding to HIV-1 TAR RNA
[3] = test system: Tat ARM binding to HIV-1 TAR RNA; remark: listed apart in the source
[4] = test system: HIV TAR RNA; conditions: cited from earlier work
Source text: (§1) The precise role of arginine in Tat-mediated RNA recognition came into focus only recently based on the high-resolution NMR analysis of an HIV Tat-ARM in complex with human 7SK RNA and HIV TAR RNA ([19]). When bound to host 7SK, Tat adopts a bent conformation wherein a cluster of three arginines specifically recognizes the Hoogsteen edges of guanine nucleobases. Conversely, the Tat-ARM adopts a more linear conformation that uses two arginines to recognize the Hoogsteen edges of TAR nucleobases. Remarkably, these different modes of base recognition use distinctive arginines from the same Tat pe ...

[5] = test system: human 7SK RNA; conditions: cited from earlier work
Source text: as §1

## Ac-GISYGRKKRRQRRRAHQ-NH2 [Tat ARM, reference compound]
[1]
  Kd: 166 ± 21 nM
  ΔG°: -9.2 ± 0.1 kcal/mol
  ΔH°: −4.5 ± 0.6 kca/mol
  −TΔS°: -4.8 ± 0.7 kcal/mol
[1]; 20 °C
  Kd: 135 ± 31 nM
[2]
  heats of binding of Tat ARM: no significant heats of binding; also recorded: no appreciable heats of binding
[3]
  Tat binding mode in presence of TB-LP-6.9: non- identical two- site binding
[4]
  affinity: nanomolar affinity
[5]
  affinity: nanomolar affinity
